Experimental data as given in ChEMBL document CHEMBL5050838 (2021).
One block for each molecule: values may come before it. Activity calls are given as the source filed them. The rule behind the calls is not given here.

Tests used:
JIMT-1 [1] = assay: Induction of apoptosis in human JIMT-1 cells at high concentration assessed as change in cleaved caspase-3 levels and measured by Western blot analysis; format: functional, cell-based; conditions: dose 100-5000 nM
JIMT-1 [2] = assay: Induction of mitotic arrest in human JIMT-1 cells at high concentration assessed as change in p-histone H3 levels and measured by Western blot analysis; format: functional, cell-based; conditions: dose 100-5000 nM
JIMT-1 [3] = assay: Antiproliferative activity against human JIMT-1 cells after 72 hrs by Cell Titer Glo assay; format: functional, cell-based; conditions: JIMT-1, 72 h
MDA-MB-436 = assay: Antiproliferative activity against human MDA-MB-436 cells after 72 hrs by Cell Titer Glo assay; format: functional, cell-based; conditions: MDA-MB-436, 72 h
JIMT-1 [4] = assay: Induction of DNA damage in human JIMT-1 cells at high concentration assessed as change in p-H2AX levels and measured by Western blot analysis; format: functional, cell-based; conditions: dose 100-5000 nM
MDA-MB-157 = assay: Antiproliferative activity against human MDA-MB-157 cells after 72 hrs by Cell Titer Glo assay; format: functional, cell-based; conditions: MDA-MB-157, 72 h
MCF-12A = assay: Antiproliferative activity against human MCF-12A cells after 72 hrs by Cell Titer Glo assay; format: functional, cell-based
JIMT-1 [5] = assay: Induction of apoptosis in human JIMT-1 cells at high concentration assessed as change in cleaved PARP levels and measured by Western blot analysis; format: functional, cell-based; conditions: dose 100-5000 nM
BT-474 = assay: Antiproliferative activity against T-DM1-resistant human BT-474 cells after 72 hrs by Cell Titer Glo assay; format: functional, cell-based; conditions: BT-474, 72 h
[6] = Toxicity in human JIMT-1 cells xenografted female nude mouse assessed as effect on body weight at 25 mg/kg, po administered for every two days for 23 days; format: organism-based; conditions: in vivo, 552 h, time 23 day
JIMT-1 [7] = assay: Antitumor activity against human JIMT-1 cells xenografted female nude mouse assessed as reduction in tumor growth at 5 mg/kg, po administered for every two days for 30 days; format: functional, organism-based; conditions: time 30.0 day
JIMT-1 [8] = assay: Anticlonogenic activity against human JIMT-1 cells assessed as reduction number of cell colonies at 100 to 1000 nM measured after 12 days by crystal violet reagent based colony formation assay; format: functional; conditions: dose 100-1000 nM, time 12.0 day
[9] = Plasma protein binding in human; format: ADME, cell-free
JIMT-1 [10] = assay: Inhibition of TACC3 expressed in human JIMT-1 cells at 1 uM and measured after 6 hrs by cellular thermal shift assay relative to control; format: cell-based
[11] = Toxicity in human JIMT-1 cells xenografted female nude mouse assessed as effect on body weight at 5 mg/kg, po administered for every two days for 30 days; format: organism-based; conditions: in vivo, 720 h, time 30 day
JIMT-1 [12] = assay: Induction of apoptosis in human JIMT-1 cells assessed as change in cleaved caspase-3 levels and measured by Western blot analysis; format: functional, cell-based; conditions: dose 100-5000 nM
JIMT-1 [13] = assay: Induction of DNA damage in human JIMT-1 cells assessed as change in p-H2AX levels and measured by Western blot analysis; format: functional, cell-based; conditions: dose 100-5000 nM
JIMT-1 [14] = assay: Antitumor activity against human JIMT-1 cells xenografted female nude mouse assessed as reduction in tumor weight at 25 mg/kg, po administered for every two days for 23 days; format: functional, organism-based; conditions: time 23.0 day
[15] = Toxicity in human JIMT-1 cells xenografted female nude mouse assessed as effect on body weight at 2 mg/kg, po administered for every two days for 30 days; format: organism-based; conditions: in vivo, 720 h, time 30 day
[16] = Toxicity in human JIMT-1 cells xenografted female nude mouse assessed as effect on body weight at 2 mg/kg, iv administered for every two days for 30 days; format: organism-based; conditions: in vivo, 720 h, time 30 day
JIMT-1 [17] = assay: Antitumor activity against human JIMT-1 cells xenografted female nude mouse assessed as reduction in tumor growth at 2 mg/kg, iv administered for every two days for 30 days; format: functional, organism-based; conditions: time 30.0 day
[18] = Kinetic solubility in sodium phosphate buffer at pH 7.4 and at 25 degreeC after 2 hrs; format: physicochemical; conditions: read-out: Kinetic_solubility
JIMT-1 [19] = assay: Induction of apoptosis in human JIMT-1 cells assessed as change in cleaved PARP levels and measured by Western blot analysis; format: functional, cell-based; conditions: dose 100-5000 nM
JIMT-1 [20] = assay: Induction of mitotic arrest in human JIMT-1 cells assessed as change in p-histone H3 levels and measured by Western blot analysis; format: functional, cell-based; conditions: dose 100-5000 nM
JIMT-1 [21] = assay: Antitumor activity against human JIMT-1 cells xenografted female nude mouse assessed as reduction in tumor growth at 25 mg/kg, po administered for every two days for 23 days; format: functional, organism-based; conditions: time 23.0 day
[22] = Half-life in mouse liver microsomes; format: ADME, Microsome
[23] = Lipophilicity, log D of compound at pH 7.4 in octanol/phosphate buffer; format: physicochemical
[24] = Half-life in human liver microsomes; format: ADME, Microsome
[25] = Apparent permeability of the compound across basolateral to apical side in human Caco-2 cells; format: ADME, cell-based
[26] = Plasma protein binding in human assessed as unbound fraction; format: ADME, cell-free
[27] = Intrinsic clearance in human liver microsomes; format: ADME, Microsome; conditions: read-out: CLH
JIMT-1 [28] = assay: Antitumor activity against human JIMT-1 cells xenografted female nude mouse assessed as reduction in tumor growth at 2 mg/kg, po administered for every two days for 30 days; format: functional, organism-based; conditions: time 30.0 day
[29] = Apparent permeability of the compound across apical to basolateral side in human Caco-2 cells; format: ADME, cell-based
[30] = Intrinsic clearance in mouse liver microsomes; format: ADME, Microsome; conditions: read-out: CLH

- IC50 (MDA-MB-436): 1.3 µM
- IC50 (MDA-MB-157): 1.82 µM
- IC50 (BT-474): 0.99 µM
SMILES: CCN(Cc1ccncc1)Cc1c(O)ccc2c(-c3cc4ccccc4oc3=O)cc(=O)oc12
- Activity (JIMT-1 [1]): Active
- Activity (JIMT-1 [2]): Active
- IC50 (JIMT-1 [3]): 1.15 µM
- Activity (JIMT-1 [4]): Active
- IC50 (MCF-12A): > 10 µM
- Activity (JIMT-1 [5]): Active

- PPB [9]: 98.87%
- IC50 (MDA-MB-436): 0.146 µM
- IC50 (MDA-MB-157): 0.33 µM
- solubility kinetic at 2 h [18]: < 1 µM
- IC50 (BT-474): 0.37 µM
- half-life [22]: 5 min
- logD [23]: 2.31
- half-life [24]: 12 min
- Papp B→A [25]: 24.1 ×10⁻⁶ cm/s
- PPB [26]: 1.13%
- microsomal CLint [27]: 118 µL/min/mg
- Papp A→B [29]: 19.1 ×10⁻⁶ cm/s
- microsomal CLint [30]: 329 µL/min/mg
SMILES: COc1ccc(-c2cc(Nc3ccnc(N4CCOCC4)n3)on2)cc1
- Activity [6]: Non-Toxic
- Activity (JIMT-1 [7]): Active
- Activity (JIMT-1 [8]): Dose-Dependent Effect
- Activity (JIMT-1 [10]): Active
- Activity [11]: Non-Toxic
- Activity (JIMT-1 [12]): Dose-Dependent Effect
- Activity (JIMT-1 [13]): Dose-Dependent Effect
- Activity (JIMT-1 [14]): Active
- Activity [15]: Non-Toxic
- Activity [16]: Non-Toxic
- Activity (JIMT-1 [17]): Active
- IC50 (MCF-12A): > 10 µM
- Activity (JIMT-1 [19]): Dose-Dependent Effect
- Activity (JIMT-1 [20]): Dose-Dependent Effect
- Activity (JIMT-1 [21]): Active
- Activity (JIMT-1 [28]): Active

- IC50 (MDA-MB-436): 4.14 µM
- IC50 (MDA-MB-157): 1.82 µM
- IC50 (BT-474): 3.73 µM
SMILES: CC(C)CNc1ccnc(NCc2csc(-c3ccccc3)n2)n1
- Activity (JIMT-1 [1]): Active
- Activity (JIMT-1 [2]): Active
- IC50 (JIMT-1 [3]): 1.8 µM
- Activity (JIMT-1 [4]): Active
- IC50 (MCF-12A): 3.46 µM
- Activity (JIMT-1 [5]): Active
